Experimental data as given in ChEMBL document CHEMBL1681659, “Discovery of novel positive allosteric modulators of the metabotropic glutamate receptor 5 (mGlu5)” (Bioorg Med Chem Lett, 2011).

Assays:
[1] = Chemical stability of the compound assessed as half life at pH 1; format: physicochemical; conditions: buffer
[2] = Chemical stability of the compound assessed as half life at pH 10; format: physicochemical; conditions: buffer
[3] = Intrinsic clearance in human liver microsome; format: ADME; conditions: liver microsomes
[4] = Intrinsic clearance in rat liver microsome; format: ADME; conditions: liver microsomes
[5] = Chemical stability assessed as compound remaining after 1 hr by photolysis assay; format: physicochemical; conditions: read-out: Stability

A half-life [1] of 278 h, a half-life [2] of 24 h and a microsomal CLint [3] of 120 µL/min/mg were found for `O=C1CCOc2nc(C#Cc3ccccc3)ccc21` in this work. For the same molecule, the microsomal CLint [4] was 95 µL/min/mg and the remaining at 1 h [5] was 0%.
